Assay results: paper PMC11487536 (ACS Pharmacology & Translational Science, 2024)
Several values for one entry are separate records, joined by “and”; a condition that tells them apart may be missing. Equal entries are not always repeated.

How the values were obtained:
[1] = target: T1, sensing domain of P. fluorescens CtaA (Pseudomonas fluorescens, UniProt Q3K7T6); assay: Thermal shift assay; format: binding; details: for Midpoint Transition Temperature in Presence of Ligand, Tm: 5 μM CtaA, ligand 20 μM, pH 5.5
T1 sequence (Q3K7T6 30-277): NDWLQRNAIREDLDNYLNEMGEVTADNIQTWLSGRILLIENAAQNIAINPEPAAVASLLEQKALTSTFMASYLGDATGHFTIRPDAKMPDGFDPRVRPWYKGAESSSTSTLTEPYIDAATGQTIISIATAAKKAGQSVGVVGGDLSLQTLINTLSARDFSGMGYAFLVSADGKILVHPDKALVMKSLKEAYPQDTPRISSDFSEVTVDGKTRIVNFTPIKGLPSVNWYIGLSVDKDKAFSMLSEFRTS

[2] = target: T2, sensing domain of C. jejuni Tlp3 (Campylobacter jejuni, UniProt Q0P864); assay: Thermal shift assay; format: binding; details: for Midpoint Transition Temperature in Presence of Ligand, Tm: 10 μM Tlp3, ligand 3 mM (L-valine 10 mM), pH 8.0
T2 sequence (Q0P864 41-290): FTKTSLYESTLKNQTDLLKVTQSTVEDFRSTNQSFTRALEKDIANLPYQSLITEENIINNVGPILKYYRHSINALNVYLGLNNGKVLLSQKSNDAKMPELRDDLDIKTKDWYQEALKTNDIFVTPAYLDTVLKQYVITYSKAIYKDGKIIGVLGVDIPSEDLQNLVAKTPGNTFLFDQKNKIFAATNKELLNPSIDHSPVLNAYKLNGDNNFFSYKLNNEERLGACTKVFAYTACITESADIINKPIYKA

TlpC = target: T3, TlpC (Helicobacter pylori, UniProt O24911); details: 25 °C; cited from earlier work
T3 sequence (O24911 32-299): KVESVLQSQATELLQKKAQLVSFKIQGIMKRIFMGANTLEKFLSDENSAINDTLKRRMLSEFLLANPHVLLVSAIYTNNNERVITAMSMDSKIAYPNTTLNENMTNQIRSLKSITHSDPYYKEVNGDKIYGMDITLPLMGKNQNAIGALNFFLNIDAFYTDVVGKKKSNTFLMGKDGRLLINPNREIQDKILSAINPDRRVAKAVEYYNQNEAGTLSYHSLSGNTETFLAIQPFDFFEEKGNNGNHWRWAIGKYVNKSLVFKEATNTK

Kd [1]	Midpoint Transition Temperature in Presence of Ligand, Tm [1]	Midpoint Transition Temperature in Presence of Ligand, Tm [2]	Kd [2]	Structure (SMILES)	ΔHL(T) from ITC (enthalpy of ligand binding) (TlpC)
4.6 µM and 3.2 µM	56.1 ± 0.1 °C			C[C@H](N)C(=O)O [L-Alanine, L-alanine]	
		64.5 ± 0.3 °C		CC[C@H](C)[C@H](N)C(=O)O [L-Isoleucine, L-isoleucine]	
				C[C@H](O)C(=O)O [L-Lactate, L-lactate]	–21.32 kcal mol^–1
5 ± 1 µM	54.7 ± 0.3 °C	64.2 ± 0.2 °C	222 µM and 90 µM and 116 µM	CC(C)C[C@H](N)C(=O)O [L-Leucine, L-leucine]	
		63.7 ± 0.3 °C		CCC[C@H](N)C(=O)O [L-Norvaline, L-norvaline]	
9 µM and 4 µM	55.1 ± 0.3 °C			N[C@@H](CO)C(=O)O [L-Serine, L-serine]	
1.5 µM and 1.2 µM	57.6 ± 0.2 °C	64.6 ± 0.3 °C	578 µM and 240 µM and 316 µM	CC(C)[C@H](N)C(=O)O [L-Valine, L-valine]	
